Results published in patent publication US10513539B2, “Hydrophobic modified peptides and their use for liver specific targeting” (Ruprecht-Karls-Universitat Heidelberg, priority 2011, dated 2019).

Experiments:
[1] = system: primary mouse hepatocytes
Procedure: Next it was analyzed if the modified doxorubicin is still cytotoxic to cells. In this experiment primary mouse hepatocytes isolated from C57BL/6 mice as described in Galle et al., (1994) (37) were incubated and reseeded in 96 well flat bottom plates to form a confluent cell layer. […] The cells were then incubated for 12 h (FIG. 6A) or 24 h (FIG. 6B), respectively. After incubation an MTT assay (Cell proliferation Kit, Roche Mannheim Germany) was performed as indicated by the manufacturer's instructions to determine remaining cell viability. The results are shown in FIGS. 6A and 6B (Cell Viability Assay).

[2] = system: HepG2 cells
[3] = Procedure: The peptide stearoyl-[K(DOTA[^68Ga])]3-[…] (SEQ ID NO:15)-amide was dissolved in citrate buffer (pH 8.0)+4% BSA and injected i.v. in the tail vene of tumour bearing WAG/Rij rats. The rats were orthopically injected with 1×10^6 syngenic colon carcinoma cells (CC531 cells) 10 days prior to the measurements. At the day of measurement the rats received the peptide in a concentration of 400 nmol/kg body weight. During the experiments the rats were anaesthetised by isoflurane and kept at 37° C.

Compound | cytotoxic effects [1] | cytotoxic activity [2] | enrichment in the liver (PET) ([3]; 400 nmol/kg i.v., WAG/Rji rat, five minutes post i.v. injection (FIG. 4A)) | specificity of staining, liver tissue vs tumor tissue (merged PET images) ([3]; tumour bearing rat (CC531 colon carcinoma), FIG. 4C)
COc1cccc2c1C(=O)c1c(O)c3c(c(O)c1C2=O)C[C@@](O)(C(=O)CO)C[C@@H]3O[C@H]1C[C@H](N)[C@H](O)[C@H](C)O1 [doxorubicin] | significant cytotoxic effects | significant cytotoxicity |  | 
CCCCCCCCCCCCCCCCCC(=O)N[C@@H](CCCCNC(=O)CN1CCN(CC(=O)O)CCN(CC(=O)O)CCN(CC(=O)O)CC1)C(=O)N[C@@H](CCCCNC(=O)CN1CCN(CC(=O)O)CCN(CC(=O)O)CCN(CC(=O)O)CC1)C(=O)N[C@@H](CCCCNC(=O)CN1CCN(CC(=O)O)CCN(CC(=O)O)CCN(CC(=O)O)CC1)C(=O)N[C@@H](CC(N)=O)C(=O)N[C@@H](CC(C)C)C(=O)N[C@@H](CO)C(=O)N[C@H](C(=O)N[C@@H](CO)C(=O)N[C@@H](CC(N)=O)C(=O)N1CCC[C@H]1C(=O)N[C@@H](CC(C)C)C(=O)NCC(=O)N[C@@H](Cc1ccccc1)C(=O)N[C@@H](Cc1ccccc1)C(=O)N1CCC[C@H]1C(=O)N[C@@H](CC(=O)O)C(=O)N[C@@H](Cc1c[nH]cn1)C(=O)N[C@@H](CCC(N)=O)C(=O)N[C@@H](CC(C)C)C(=O)N[C@@H](CC(=O)O)C(=O)N1CCC[C@H]1C(N)=O)[C@@H](C)O |  |  | Specific enrichment | staining only liver tissue but not the tumor tissue
